How the values were obtained:
human Nav1.7 = human Nav1.7 (Homo sapiens (Human), UniProt Q15858); test: Human Nav1.7 inhibitory activity evaluation (automated patch clamp QPatch16X, HEK293A cells stably expressing human Nav1.7 and human Navβ1); assay type: cell-based
How it was run: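 IC50 calculated from the concentration-response of inward current evoked by the second −10 mV, 50 ms depolarisation, which follows a 15 s conditioning step at roughly 30-40% inactivation and a 100 ms −120 mV interval. Cells: HEK293A expressing human Nav1.7/Navβ1, automated patch clamp, room temperature, 0.1% DMSO final.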

human Nav1.5 = human Nav1.5 (Homo sapiens (Human), UniProt Q14524); test: Human Nav1.5 inhibitory activity evaluation (automated patch clamp QPatch16X, HEK293 cells stably expressing human Nav1.5); assay type: cell-based
Sequence of human Nav1.5 (Q14524 whole entry): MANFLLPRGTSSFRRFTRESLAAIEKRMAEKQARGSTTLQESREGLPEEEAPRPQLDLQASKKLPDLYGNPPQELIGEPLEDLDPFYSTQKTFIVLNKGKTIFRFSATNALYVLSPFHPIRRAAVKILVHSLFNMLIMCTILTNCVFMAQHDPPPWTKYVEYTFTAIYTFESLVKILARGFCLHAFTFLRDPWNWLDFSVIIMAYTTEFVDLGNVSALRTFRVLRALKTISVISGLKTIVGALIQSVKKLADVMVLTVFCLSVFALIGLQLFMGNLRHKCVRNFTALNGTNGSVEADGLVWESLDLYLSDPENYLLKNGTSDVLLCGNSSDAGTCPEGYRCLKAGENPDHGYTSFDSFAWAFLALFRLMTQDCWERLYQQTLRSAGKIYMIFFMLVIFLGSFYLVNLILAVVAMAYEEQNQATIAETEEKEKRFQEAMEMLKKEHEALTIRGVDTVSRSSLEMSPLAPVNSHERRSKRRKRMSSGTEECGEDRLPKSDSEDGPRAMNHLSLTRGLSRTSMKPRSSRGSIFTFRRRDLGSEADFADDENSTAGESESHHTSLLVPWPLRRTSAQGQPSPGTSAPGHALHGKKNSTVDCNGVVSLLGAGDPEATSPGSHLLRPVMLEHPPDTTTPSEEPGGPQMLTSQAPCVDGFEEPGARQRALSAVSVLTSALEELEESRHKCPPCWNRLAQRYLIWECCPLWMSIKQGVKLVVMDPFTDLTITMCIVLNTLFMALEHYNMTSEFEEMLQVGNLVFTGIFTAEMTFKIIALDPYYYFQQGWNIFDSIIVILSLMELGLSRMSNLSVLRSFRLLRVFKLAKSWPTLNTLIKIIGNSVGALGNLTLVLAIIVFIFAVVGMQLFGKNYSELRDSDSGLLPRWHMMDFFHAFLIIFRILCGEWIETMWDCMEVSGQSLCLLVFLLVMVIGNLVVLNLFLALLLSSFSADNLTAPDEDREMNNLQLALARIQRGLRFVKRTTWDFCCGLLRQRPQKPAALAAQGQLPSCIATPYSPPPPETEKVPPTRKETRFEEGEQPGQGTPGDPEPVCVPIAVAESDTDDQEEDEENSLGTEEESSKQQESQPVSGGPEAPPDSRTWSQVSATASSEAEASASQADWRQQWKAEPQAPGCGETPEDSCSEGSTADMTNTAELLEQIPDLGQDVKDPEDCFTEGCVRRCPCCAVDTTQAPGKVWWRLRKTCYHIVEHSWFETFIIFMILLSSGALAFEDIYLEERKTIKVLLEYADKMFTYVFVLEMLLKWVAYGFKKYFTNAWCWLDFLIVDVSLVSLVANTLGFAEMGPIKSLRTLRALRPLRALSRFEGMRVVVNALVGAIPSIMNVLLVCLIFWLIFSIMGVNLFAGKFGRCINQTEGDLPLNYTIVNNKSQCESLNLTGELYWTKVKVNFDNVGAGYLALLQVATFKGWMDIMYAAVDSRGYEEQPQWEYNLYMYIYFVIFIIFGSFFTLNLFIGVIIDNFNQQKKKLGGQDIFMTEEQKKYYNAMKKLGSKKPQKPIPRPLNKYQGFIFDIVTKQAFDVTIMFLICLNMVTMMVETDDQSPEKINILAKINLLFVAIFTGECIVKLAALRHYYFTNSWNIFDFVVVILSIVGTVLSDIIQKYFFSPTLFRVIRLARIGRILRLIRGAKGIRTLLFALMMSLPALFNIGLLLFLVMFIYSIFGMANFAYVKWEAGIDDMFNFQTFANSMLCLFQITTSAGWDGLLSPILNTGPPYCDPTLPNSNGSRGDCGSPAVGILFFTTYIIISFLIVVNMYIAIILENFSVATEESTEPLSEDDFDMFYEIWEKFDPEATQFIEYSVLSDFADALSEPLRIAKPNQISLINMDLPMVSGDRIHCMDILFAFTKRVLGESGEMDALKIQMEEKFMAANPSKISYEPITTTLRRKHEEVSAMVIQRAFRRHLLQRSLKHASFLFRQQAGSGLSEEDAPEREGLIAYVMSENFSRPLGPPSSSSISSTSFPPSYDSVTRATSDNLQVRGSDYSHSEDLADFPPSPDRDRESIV
Method: Test Example 2: Human Nav1.5 Inhibitory Activity Evaluation
A cell line in which human Nav1.5 was stably expressed in HEK293 cells was used. DMEM supplemeted with 15% fetal bovine serum, 500 μg/ml geneticin, 100 units/ml penicillin, 100 μg/ml streptomycin, 20 mM HEPES was used as culture medium under the conditions of 37° C. and 5% CO2 in T175 flasks to carry out culturing. When 60-80% confluence was reached, a cell suspension of about 0.5-5.0×10^6 cells/mL was prepared. The amount of current through human Nav1.5 was recorded using a fully automatic patch clamp device QPatch16X at room temperature. As the extracellular solution, 145 mM NaCl, 4 mM KCl, 1 mM MgCl2, 2 mM CaCl2, 10 mM Glucose, and 10 mM HEPES at pH 7.4 was used. As the intracellular solution, 135 mM CsF, ⅕ mM EGTA/CsOH, 10 mM HEPES, and 10 mM NaCl at pH 7.3 was used. The test compounds were dissolved in DMSO and diluted with the extracellular solution to attend the DMSO concentration of 0.1% at the time of assay.
The current response was obtained at a sampling frequency of 25 kHz, and noise was removed with a 3 kHz low-pass filter. The holding potential was −80 mV. Correction of the leakage current was carried out by applying a step pulse of −100 mV before the test pulse. In order to investigate human Nav1.5 inhibitory effect of the test compound, test pulses imitating the action potential of cardiomyocytes were continuously given 20 times. The test pulses were given before and after the test compound addition.
The inhibitory activity of the test compound was determined based on the amount of inward current generated by the 20th depolarization pulse, and the 50% inhibitory concentration (IC50) was calculated from the concentration-response curve.

[1] = human Nav1.7, automated patch clamp
[2] = human Nav1.5, automated patch clamp
[3] = HEK293A cells stably expressing human Nav1.7 and human Navβ1, automated patch clamp QPatch16X
[4] = HEK293 cells stably expressing human Nav1.5, automated patch clamp QPatch16X

Sequence of human Nav1.7 (Q15858 whole entry): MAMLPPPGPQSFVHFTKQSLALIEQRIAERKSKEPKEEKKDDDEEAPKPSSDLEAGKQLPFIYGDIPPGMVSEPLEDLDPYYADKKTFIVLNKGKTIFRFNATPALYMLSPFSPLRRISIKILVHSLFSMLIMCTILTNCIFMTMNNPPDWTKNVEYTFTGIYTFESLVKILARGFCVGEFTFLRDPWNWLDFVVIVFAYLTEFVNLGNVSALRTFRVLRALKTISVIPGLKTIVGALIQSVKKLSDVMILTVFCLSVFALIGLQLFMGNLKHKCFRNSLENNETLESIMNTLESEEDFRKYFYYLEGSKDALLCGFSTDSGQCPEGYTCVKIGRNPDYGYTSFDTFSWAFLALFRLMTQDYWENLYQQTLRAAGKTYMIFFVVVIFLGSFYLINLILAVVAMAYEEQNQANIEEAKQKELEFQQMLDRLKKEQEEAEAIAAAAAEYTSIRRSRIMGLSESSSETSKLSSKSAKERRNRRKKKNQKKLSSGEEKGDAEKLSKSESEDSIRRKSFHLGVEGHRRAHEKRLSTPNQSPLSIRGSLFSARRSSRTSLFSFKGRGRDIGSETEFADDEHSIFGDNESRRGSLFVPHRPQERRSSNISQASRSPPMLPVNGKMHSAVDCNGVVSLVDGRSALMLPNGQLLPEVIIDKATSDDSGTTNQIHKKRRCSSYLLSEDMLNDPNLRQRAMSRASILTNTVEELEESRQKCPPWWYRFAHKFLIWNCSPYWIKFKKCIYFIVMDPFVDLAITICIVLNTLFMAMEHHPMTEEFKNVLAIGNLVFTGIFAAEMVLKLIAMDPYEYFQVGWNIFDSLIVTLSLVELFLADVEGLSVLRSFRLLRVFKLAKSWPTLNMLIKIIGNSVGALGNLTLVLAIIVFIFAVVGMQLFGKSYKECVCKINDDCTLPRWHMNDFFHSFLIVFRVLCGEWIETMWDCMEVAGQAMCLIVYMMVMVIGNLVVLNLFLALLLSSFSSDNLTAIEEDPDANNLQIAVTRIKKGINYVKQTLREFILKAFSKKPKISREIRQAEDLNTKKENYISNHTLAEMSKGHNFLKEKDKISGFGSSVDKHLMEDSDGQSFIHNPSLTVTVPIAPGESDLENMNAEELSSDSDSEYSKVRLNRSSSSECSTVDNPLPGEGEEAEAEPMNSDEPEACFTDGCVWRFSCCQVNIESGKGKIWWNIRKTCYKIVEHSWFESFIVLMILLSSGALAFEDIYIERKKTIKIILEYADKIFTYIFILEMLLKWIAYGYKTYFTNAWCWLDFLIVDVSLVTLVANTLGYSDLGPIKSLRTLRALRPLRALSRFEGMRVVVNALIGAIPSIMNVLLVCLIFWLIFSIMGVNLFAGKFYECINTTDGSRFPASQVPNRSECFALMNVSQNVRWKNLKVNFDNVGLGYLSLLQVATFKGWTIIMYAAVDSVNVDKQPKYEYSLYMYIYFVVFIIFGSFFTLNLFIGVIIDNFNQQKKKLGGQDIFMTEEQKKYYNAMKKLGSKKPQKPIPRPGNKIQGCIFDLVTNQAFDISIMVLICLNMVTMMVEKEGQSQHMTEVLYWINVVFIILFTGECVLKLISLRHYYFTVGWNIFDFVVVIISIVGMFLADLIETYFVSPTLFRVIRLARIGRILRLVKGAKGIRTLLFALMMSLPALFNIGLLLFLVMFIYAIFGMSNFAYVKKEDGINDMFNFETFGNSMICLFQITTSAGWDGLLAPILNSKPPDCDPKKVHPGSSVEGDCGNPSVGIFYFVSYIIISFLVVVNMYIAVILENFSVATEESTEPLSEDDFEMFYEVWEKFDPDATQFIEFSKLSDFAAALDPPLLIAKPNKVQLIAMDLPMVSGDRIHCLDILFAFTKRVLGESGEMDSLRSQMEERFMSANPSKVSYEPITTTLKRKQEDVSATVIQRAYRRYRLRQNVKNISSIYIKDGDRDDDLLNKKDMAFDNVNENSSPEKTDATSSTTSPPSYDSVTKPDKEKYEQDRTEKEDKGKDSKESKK
Sequence of human Nav1.7 (Q07699 19-218 partner): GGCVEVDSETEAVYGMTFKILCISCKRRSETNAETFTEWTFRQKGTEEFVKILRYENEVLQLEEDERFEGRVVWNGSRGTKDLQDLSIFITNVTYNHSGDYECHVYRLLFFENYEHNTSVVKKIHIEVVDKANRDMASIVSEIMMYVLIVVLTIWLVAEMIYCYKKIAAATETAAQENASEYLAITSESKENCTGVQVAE

Compound | IC50 (human Nav1.7; [1]) [nM] | IC50 (human Nav1.7; [3]) [nM] | IC50 (human Nav1.5; [2]) [nM] | IC50 (human Nav1.5; [4]) [nM]
O=C(N[C@H]1COc2ccc(COCC(F)(F)F)cc2C1)c1cc2n(n1)CCC(C1CCOCC1)O2 (single isomer, unassigned) [615 (isomer A)] | < 1000 | – | 1000 to 3000 | –
COc1ncc(-c2ccc3c(c2)C[C@@H](NC(=O)c2cc4n(n2)CC(COCC2CC2)O4)CO3)cn1 (some centres unmarked) [Example 468] | < 1000 | – | ≥ 3000 | –
O=C(N[C@H]1COc2ccccc2C1)c1cc2n(n1)CCN(C(=O)Cc1ccccc1)C2 [Example 276] | < 10000 | – | ≥ 3000 | –
COC1c2cc(C(F)(F)F)ccc2OC[C@@H]1NC(=O)c1cc2n(n1)CC(COCC(F)(F)F)O2 (single isomer, unassigned; isomer a) [597(isomer A)] | < 1000 | – | ≥ 3000 | –
O=C(N[C@H]1COc2ccc(CC(F)F)cc2C1)c1cc2n(n1)CCC(COC1CCC1)O2 (some centres unmarked) [Example 437] | < 1000 | – | 1000 to 3000 | –
N#Cc1ccc2c(c1)C[C@@H](NC(=O)c1cc3n(n1)CCC(CC1CC1)O3)CO2 (some centres unmarked) [Example 96] | – | < 1000 | – | 1000 to 3000
CC1CCn2nc(C(=O)N[C@H]3COc4ccc(COCC(F)(F)F)cc4C3)cc2OC1 (some centres unmarked) [Example 543] | < 10000 | – | ≥ 3000 | –
O=C(NC1COc2cccc(C(F)F)c2C1)c1cn2c(n1)CCC(C(F)(F)F)C2 (centres unmarked) [Example 292] | < 1000 | – | 1000 to 3000 | –
O=C(N[C@H]1COc2ccc(Cl)cc2C1)c1cc2n(n1)CC(CCN1CC(F)(F)C1)O2 (single isomer, unassigned) [234 (isomer B)] | < 1000 | – | < 1000 | –
CN1Cc2nc(C(=O)NCCc3ccccc3)cn2CC1c1ccccc1 (centres unmarked) [Example 58] | – | < 10000 | – | ≥ 3000
O=C(N[C@H]1COc2ccccc2C1)c1cc2n(n1)CCC(c1ccccc1)N2 (some centres unmarked) [Example 287] | < 10000 | – | ≥ 3000 | –
O=C(N[C@H]1COc2ccccc2C1)c1nn2c(c1-c1ccccc1)CN(CC(F)(F)F)CC2 [Example 275] | < 1000 | – | 1000 to 3000 | –
N#Cc1ccc2c(c1)C[C@@H](NC(=O)c1cc3n(n1)CC(CCOCC1CC1)O3)CO2 (single isomer, unassigned) [202 (isomer A)] | < 1000 | – | ≥ 3000 | –
N#Cc1ccc2c(c1)C[C@@H](NC(=O)c1cc3n(n1)CCC(C(F)(F)F)O3)CO2 (some centres unmarked) [Example 374] | < 1000 | – | ≥ 3000 | –
O=C(c1cn2c(n1)CCC(c1cccc(OC3COC3)n1)C2)N1CCC(c2ccccc2)C1 (centres unmarked) [Example 313] | < 10000 | – | ≥ 3000 | –
N#Cc1ccc(-c2ccc3c(c2)C[C@@H](NC(=O)c2cc4n(n2)CCC(C(F)(F)F)O4)CO3)cn1 (some centres unmarked) [Example 174] | < 1000 | – | ≥ 3000 | –
COc1cccc(C2CCc3nc(C(=O)N[C@H]4COc5ccccc5C4)cn3C2)n1 (some centres unmarked) [Example 27] | – | < 1000 | – | < 1000
O=C(N[C@H]1COc2ccc(-c3ccccn3)cc2C1)c1cc2n(n1)CCC(COCC(F)(F)F)O2 (single isomer, unassigned) [131 (isomer A)] | – | < 1000 | – | 1000 to 3000
N#Cc1ccc2c(c1)C[C@@H](NC(=O)c1cc3n(n1)CCC(COC(F)(F)F)O3)CO2 (mixture of isomers) [Example 133, N—((R)-6-cyanochroman-3-yl)-5-((trifluoromethoxy)methyl)-6,7-dihydro-5H-pyrazolo[5,1-b][1,3]oxazine-2-carboxamide] | – | < 1000 | – | 1000 to 3000
N#Cc1ccc2c(c1)C[C@@H](NC(=O)c1cc3n(n1)CCC(COCC1(F)CC1)O3)CO2 (single isomer, unassigned) [552 (isomer A)] | < 10000 | – | ≥ 3000 | –
CCc1ccc2c(c1)CC(NC(=O)c1cn3c(n1)CCC(C(F)(F)F)C3)CO2 (centres unmarked) [Example 295] | < 1000 | – | ≥ 3000 | –
N#Cc1ccc2c(c1)C[C@@H](NC(=O)c1cc3n(n1)CCC(c1ccc(F)cc1)O3)CO2 (some centres unmarked) [Example 364] | < 1000 | – | 1000 to 3000 | –

Continued, in another order:

IC50 (human Nav1.7; [1]) [nM] | IC50 (human Nav1.7; [3]) [nM] | Compound | IC50 (human Nav1.5; [2]) [nM] | IC50 (human Nav1.5; [4]) [nM]
< 1000 | – | COC1c2cc(C(F)(F)F)ccc2OC[C@@H]1NC(=O)c1cc2n(n1)CCC(COCC(F)(F)F)O2 (single isomer, unassigned) [598 (isomer B)] | 1000 to 3000 | –
< 10000 | – | N#CC1(COCC2CCn3nc(C(=O)N[C@H]4COc5ccc(Cl)cc5C4)cc3O2)CC1 (single isomer, unassigned) [563 (isomer A)] | 1000 to 3000 | –
< 1000 | – | CC1(C)CCn2nc(C(=O)N[C@H]3COc4ccc(-c5ccccn5)cc4C3)cc2O1 [Example 383] | ≥ 3000 | –
– | < 10000 | COc1ncc(C(F)(F)F)cc1C1CCc2nc(C(=O)N3CCOC(c4ccc(F)cc4F)C3)cn2C1 (centres unmarked) [Example 32] | – | 1000 to 3000
< 10000 | – | N#Cc1ccc2c(c1)C[C@@H](NC(=O)c1cc3n(n1)CC(CSCC(F)(F)F)O3)CO2 (single isomer, unassigned) [200 (isomer A)] | ≥ 3000 | –
< 1000 | – | N#Cc1ccc2c(c1)C[C@@H](NC(=O)c1cc3n(n1)CC(CCOC(F)(F)F)O3)CO2 (some centres unmarked) [Example 208] | < 1000 | –
< 10000 | – | O=C(N[C@H]1COc2ccc(C(F)(F)F)cc2C1)c1nn2c(c1C(O)c1ccccn1)COCC2 (some centres unmarked) [Example 530] | ≥ 3000 | –
< 1000 | – | O=C(N[C@H]1COc2ccc(COCC(F)(F)F)cc2C1)c1cc2n(n1)CC(CCOCC(F)F)O2 (single isomer, unassigned) [224 (isomer A)] | ≥ 3000 | –
< 10000 | – | O=C(N[C@H]1COc2ccc(C(F)(F)F)cc2C1)c1nn2c(c1CCc1ccccn1)COCC2 [Example 531] | 1000 to 3000 | –
< 1000 | – | O=C(N[C@H]1COc2ccc(C(F)(F)F)cc2C1)c1cc2n(n1)CC(CCNCC(F)(F)F)O2 (single isomer, unassigned) [230 (isomer A)] | ≥ 3000 | –
< 1000 | – | O=C(NC1COc2cccc(F)c2C1)c1cc2n(n1)CCC(c1ccccc1)O2 (centres unmarked) [Example 356] | ≥ 3000 | –
< 10000 | – | CC(C)(CC1CC1)N1CCn2nc(C(=O)N[C@H]3COc4ccc(C#N)cc4C3)cc2C1 [Example 502] | 1000 to 3000 | –
< 10000 | – | O=C(c1cn2c(n1)CNC(c1cccc(OC(F)(F)F)c1)C2)N1CC[C@H](Oc2cccc(C(F)F)n2)C1 (some centres unmarked) [Example 336] | 1000 to 3000 | –
< 1000 | – | O=C(N[C@H]1COc2ccc(COCC(F)(F)F)cc2C1)c1cc2n(n1)CC(COC(F)(F)F)O2 (single isomer, unassigned) [196 (isomer B)] | ≥ 3000 | –
< 1000 | – | O=C(N[C@H]1COc2ccc(-c3cncnc3)cc2C1)c1cc2n(n1)CCC(c1ccccc1F)O2 (some centres unmarked) [Example 357] | ≥ 3000 | –
– | < 1000 | O=C(N[C@H]1COc2ccc(CC(F)F)cc2C1)c1cc2n(n1)CCC(COCC1CC1)O2 (single isomer, unassigned) [109 (isomer A)] | – | 1000 to 3000
< 1000 | – | N#Cc1ccc2c(c1)C[C@@H](NC(=O)c1cc3n(n1)CC(CCOCC1CC1)O3)CO2 (single isomer, unassigned) [202 (isomer B)] | < 1000 | –
< 1000 | – | COc1ncc(-c2ccc3c(c2)C[C@@H](NC(=O)c2cc4n(n2)CC(CCOCC2CC2)O4)CO3)cn1 (mixture of isomers) [Example 203, 2-(2-(cyclopropylmethoxy)ethyl)-N—((R)-6-(2-methoxypyrimidin-5-yl)chroman-3-yl)-2,3-dihydropyrazolo[5,1-b]oxazole-6-carboxamide] | ≥ 3000 | –
